No end group written: not given here.
Columns and labels:
[1] = tested on: fos-like immunoreactivity; assay: fos-like immunoreactivity (FLI) in hypothalamus and brainstem after IP injection; assay type: in vivo, rat; settings: IP OXM 50 nmol/kg or CCK 15 nmol/kg; 90 minutes after injection
Description: The brains were removed and post-fixed overnight in PBF and then transferred to PB-sucrose (20% w/v) overnight. 40 μm coronal sections of brain and brainstem were cut on a freezing microtome and stained for fos-like immunoreactivity (FLI) by the avitin-biotin-peroxidase method. The sections were then mounted on poly-L-lysine-coated slides, dehydrated in increasing concentrations of ethanol (50-100%), delipidated in xylene and coverslipped using DPX mountant. Slides were examined for FLI-positive nuclei using a light microscope (Nikon Eclipse E-800) and images captured using a microimager (Xillix MicroImager). The numbers of FLI-positive nuclei in the hypothalamus and brainstem were counted by an independent member of the research team who was blinded to the experimental groups. The average number of FLI-positive nuclei per section was calculated and expressed as an integer for each animal.

[2] = target: T1, arcuate nucleus GLP-1 receptors (Rattus norvegicus, UniProt P32301); assay: iARC exendin 9-39 prior to IP OXM or GLP-1, 1 hour food intake; assay type: in vivo
T1 construct: 24-hour fasted rats received an iARC injection of saline or exendin9-39 (5 nmoles); from tissue; host or cells: living rat, hypothalamic arcuate nucleus
T1 sequence (P32301 22-463): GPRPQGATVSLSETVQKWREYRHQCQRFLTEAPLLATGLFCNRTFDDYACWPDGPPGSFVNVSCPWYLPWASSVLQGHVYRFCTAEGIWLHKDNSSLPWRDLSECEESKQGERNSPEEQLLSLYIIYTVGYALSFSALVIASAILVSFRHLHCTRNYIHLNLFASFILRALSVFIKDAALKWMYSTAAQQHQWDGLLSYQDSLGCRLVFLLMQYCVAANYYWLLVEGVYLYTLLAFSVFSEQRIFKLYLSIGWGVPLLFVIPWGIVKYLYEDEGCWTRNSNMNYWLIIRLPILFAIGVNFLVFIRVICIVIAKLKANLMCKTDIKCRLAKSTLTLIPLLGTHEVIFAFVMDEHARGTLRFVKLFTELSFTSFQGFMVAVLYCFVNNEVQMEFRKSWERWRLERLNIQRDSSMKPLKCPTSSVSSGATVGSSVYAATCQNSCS
Description: Rats cannulated into the arcuate nucleus were randomised into 6 groups (n=10-12 per group). […] The injection details are described in Table 1 below.

GLP-1 receptor [3] = target: T2, GLP-1 receptor (Rattus norvegicus, UniProt P32301); assay: ICV coadministration of exendin-(9-39) with GLP-1 or OXM, food intake (study 4a); assay type: in vivo; settings: 1 h food intake
T2 construct: from tissue; host or cells: rat hypothalamus (membrane preparation)
T2 sequence (P32301 22-463): T1 sequence (P32301 22-463)
Method: (§1) Animals had permanent stainless steel guide cannulas (Plastics One, Roanoke, Va.) stereotactically implanted ICV or iPVN. All studies were carried out in the early light phase, between 0900-1100 h, after a 24-h fast, and food intake was measured 1, 2, 4, 8, and 24 h postinjection.

GLP-1 receptor [4] = target: T2, GLP-1 receptor; assay: iPVN coinjection of exendin-(9-39) with GLP-1 or OXM, food intake (study 4b); assay type: in vivo
Method: as §1

[5] = iPVN injection, food intake in 24-h fasted rats (studies 1b, 2b); assay type: in vivo, rat; settings: for refeeding (food intake) after iPVN injection: study 1b, OXM, GLP-1 (3 nmol [sic]), exendin-4 0.03 nmol, glicentin, glucagon 1 nmol, SP-1 3 nmol, fasted rats
Method: (§2) Animals had permanent stainless steel guide cannulas (Plastics One, Roanoke, Va.) stereotactically implanted ICV or iPVN.
Therefore, exendin-4 was injected iPVN at a dose of 0.03 nmol.

[6] = ICV injection, food intake in 24-h fasted rats (studies 1a, 2a); assay type: in vivo, rat; settings: study 1a, 3 nmol ICV; for refeeding (food intake) after ICV injection: 24-h fasted rats, vs saline
Description: as §2

[7] = ICV injection in sated rats at onset of dark phase: food intake and behaviour (study 3); assay type: in vivo, rat; settings: study 3a, 3 nmol ICV, early dark phase, vs saline
Method: Food intake was measured 1 h postinjection (study 3a), and behaviour was assessed (study 3b).

Compound: CCK-8 (DYMGWMDF; ends and bridges not checked; UniProt P06307 96-103, looked up) [positive control for gastric emptying and brainstem FLI]
- FLI / c-fos expression in the brainstem (NTS, area postrema) [1]: dense staining of FLI

Compound: exendin-(9-39)
- Food intake ([2]; 1 hour, iARC injection / IP injection 15 minutes later, exendin 9-39 5 nmoles, OXM or GLP-1 30 nmol/kg, Saline/saline 9.2): 9.0 g
- effect of prior iARC exendin 9-39 on inhibition of food intake by IP GLP-1 ([2]; GLP-1 30 nmol/kg IP): not affected
- effect of prior iARC exendin 9-39 on anorexia caused by IP OXM ([2]; exendin 9-39 (300 nmol/kg as printed) into the ARC, OXM 30 nmol/kg IP): blocked
- effect of coadministered exendin-(9-39) on anorectic effect of GLP-1 (GLP-1 receptor [3]; exendin-(9-39) 30 nmol with GLP-1 3 nmol (10:1)): blocked the anorectic effects of GLP-1
- effect of coadministered exendin-(9-39) on anorectic effect of OXM (GLP-1 receptor [3]; exendin-(9-39) 30 nmol with OXM 3 nmol): attenuation of the anorectic effect of OXM
- effect of coinjected exendin-(9-39) on anorectic effect of GLP-1 (GLP-1 receptor [4]; exendin-(9-39) 10 nmol with GLP-1 1 nmol): blocked
- effect of coinjected exendin-(9-39) on anorectic effect of OXM (GLP-1 receptor [4]; exendin-(9-39) 10 nmol with OXM 1 nmol): blocked

Compound: exendin-4
- refeeding (food intake) after iPVN injection [5]: inhibited refeeding

Compound: CC[C@H](C)[C@H](NC(=O)[C@H](Cc1ccccc1)NC(=O)[C@H](CCC(=O)O)NC(=O)[C@H](CCCCN)NC(=O)[C@H](C)NC(=O)[C@H](C)NC(=O)[C@H](CCC(N)=O)NC(=O)CNC(=O)[C@H](CCC(=O)O)NC(=O)[C@H](CC(C)C)NC(=O)[C@H](Cc1ccc(O)cc1)NC(=O)[C@H](CO)NC(=O)[C@H](CO)NC(=O)[C@@H](NC(=O)[C@H](CC(=O)O)NC(=O)[C@H](CO)NC(=O)[C@@H](NC(=O)[C@H](Cc1ccccc1)NC(=O)[C@@H](NC(=O)CNC(=O)[C@H](CCC(=O)O)NC(=O)[C@H](C)NC(=O)[C@@H](N)Cc1c[nH]cn1)[C@@H](C)O)[C@@H](C)O)C(C)C)C(=O)N[C@@H](C)C(=O)N[C@@H](Cc1c[nH]c2ccccc12)C(=O)N[C@@H](CC(C)C)C(=O)N[C@H](C(=O)N[C@@H](CCCCN)C(=O)NCC(=O)N[C@@H](CCCNC(=N)N)C(N)=O)C(C)C [GLP-1, glucagon-like peptide-1]
- refeeding (food intake) after iPVN injection [5]: inhibited refeeding
- food intake after iPVN injection ([5]; study 2b, 1 nmol iPVN, until 8 h postinjection): significantly reduced
- refeeding (food intake) after ICV injection [6]: significantly reduced refeeding
- duration of inhibition of food intake postinjection ([6]; fasted rats): 4 h
- food intake 1 h postinjection [7]: significantly reduced food intake

Compound: glucagon
- refeeding (food intake) after iPVN injection [5]: failed to affect food intake at any time point
- refeeding (food intake) after ICV injection [6]: failed to affect food intake at any time point
